Values quoted from earlier work, collected in patent publication US20260256742A1, “ANDROGEN RECEPTOR ANTAGONISTS FOR THE TREATMENT OF PATIENTS WITH BIOCHEMICAL RECURRENCE OF HORMONE SENSITIVE PROSTATE CANCER” (BAYER CONSUMER CARE AG, priority 2023, published 2026).

How the values were obtained:
[1] = single oral administration; cited from earlier work
nmCRPC = conditions: in combination with ADT, patients with nmCRPC; cited from earlier work
T878A AR mutant = T878A AR mutant (Homo sapiens, UniProt P10275, T878A); conditions: cited from earlier work
Chain of T878A AR mutant (P10275 whole entry T878A): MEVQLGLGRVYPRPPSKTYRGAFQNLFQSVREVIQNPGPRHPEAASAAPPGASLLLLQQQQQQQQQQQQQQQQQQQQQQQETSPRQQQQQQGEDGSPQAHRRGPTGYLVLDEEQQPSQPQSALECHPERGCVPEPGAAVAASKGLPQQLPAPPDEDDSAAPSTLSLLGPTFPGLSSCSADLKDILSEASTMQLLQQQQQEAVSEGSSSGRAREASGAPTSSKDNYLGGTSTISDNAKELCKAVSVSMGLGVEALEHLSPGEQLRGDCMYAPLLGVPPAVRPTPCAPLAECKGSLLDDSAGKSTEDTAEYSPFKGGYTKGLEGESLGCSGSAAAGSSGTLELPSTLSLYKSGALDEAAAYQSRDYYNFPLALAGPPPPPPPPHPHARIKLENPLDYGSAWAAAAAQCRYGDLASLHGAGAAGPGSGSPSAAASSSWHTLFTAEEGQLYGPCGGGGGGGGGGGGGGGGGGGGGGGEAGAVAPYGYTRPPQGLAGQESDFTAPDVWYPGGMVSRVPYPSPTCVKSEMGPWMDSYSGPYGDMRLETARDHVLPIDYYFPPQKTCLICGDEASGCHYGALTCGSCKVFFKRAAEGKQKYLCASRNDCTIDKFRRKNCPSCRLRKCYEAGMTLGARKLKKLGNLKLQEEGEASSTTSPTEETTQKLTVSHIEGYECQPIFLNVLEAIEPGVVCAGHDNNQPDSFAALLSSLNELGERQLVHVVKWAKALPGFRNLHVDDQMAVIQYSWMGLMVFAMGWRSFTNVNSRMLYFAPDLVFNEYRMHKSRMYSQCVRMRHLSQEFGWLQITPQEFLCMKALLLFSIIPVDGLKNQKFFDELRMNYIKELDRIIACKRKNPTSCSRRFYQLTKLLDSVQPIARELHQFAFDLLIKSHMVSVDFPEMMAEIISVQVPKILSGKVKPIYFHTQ

[2] = in vivo; cited from earlier work

Row | Compound | metastatic free survival (MFS) (nmCRPC) | overall survival (OS) (nmCRPC) | also measured
1 | CC(O)c1cc(C(=O)N[C@@H](C)Cn2ccc(-c3ccc(C#N)c(Cl)c3)n2)[nH]n1 (some centres unmarked) [[^14C]-darolutamide] | – | – | exposure in prostate tissue [1]: higher; tissue distribution [1]: wide and homogenous distribution in all tissues except the brain
2 | CNC(=O)c1ccc(N2C(=S)N(c3ccc(C#N)c(C(F)(F)F)c3)C(=O)C2(C)C)cc1F [enzalutamide] | significantly increased | significantly increased | –
3 | CC(C)(O)C(=O)Nc1ccc([N+](=O)[O-])c(C(F)(F)F)c1 [hydroxyflutamide] | – | – | action in T878A AR mutant (T878A AR mutant): AR agonists
4 | CC(Cn1ccc(-c2ccc(C#N)c(Cl)c2)n1)NC(=O)c1cc(C(C)O)[nH]n1 (single isomer, unassigned) [(S,R) diastereoisomer] | – | – | elimination compared with the other diastereoisomer [2]: faster elimination
5 | CNC(=O)c1ccc(N2C(=S)N(c3cnc(C#N)c(C(F)(F)F)c3)C(=O)C23CCC3)cc1F [apalutamide] | significantly increased | significantly increased | –
